Results reported in patent US20050064027A1, “Bioadhesive drug delivery system with enhanced gastric retention” (Spherics, Inc., priority 2001, published 2005).

Assay: Release kinetics from multi-drug macrospheres
Assay type: physicochemical
Settings: salicylate in outer Eudragit RL 100 coating, acyclovir in core
Text: Fluidized bed spraying of 5% RL 100-coated 40% Acyclovir (ACV) loaded cores with 25% sodium salicylate w/w in a 10% RL 100-coating was then used to produce multi-drug macrospheres.
The starting material was the product of Example 2 (5% w/w RL 100 coated 40% ACV cores and overcoat with 10% RL 100 coating containing 25% w/w sodium salicylate). Overcoating with a 10% w/w coating of RL100 containing 25% w/w salicylate was used to produce a biphasic drug system. Sodium salicylate should be quickly delivered followed by acyclovir release. A 176.0 g lot of beads, 40% w/w Acyclovir (1.4-2.36 mm) was used as the cores for the coatings.
The release kinetics of the two drugs from the macrospheres of Example 6 were then determined. FIG. 6 is a graph of release of acyclovir (ACV) and salicylate as a function of percent total acyclovir loading, over time (in hours), from macrospheres wherein the salicylate is encapsulated in an outer Eudragit® RL 100 coating and the acyclovir is encapsulated in the core. The outer drug loading is used to achieve rapid release (three hours) as compared to more long term release of the core drug (24 hours).

Structure (SMILES) | time of release of drug from multi-drug macrospheres | time of release of drug from multi-drug macrospheres (listed as salicylate)
O=C([O-])c1ccccc1O.[Na+] [sodium salicylate] | ≤ 3 h | three
Nc1nc2c(ncn2COCCO)c(=O)[nH]1 [acyclovir] | 24 h | 
